Patent US7951814B2, “Quinazolinedione derivatives as TRPA1 modulators” (Glenmark Pharmaceuticals, S.A., priority 2008, dated 2011)
pIC50: −log10 of the molar value. Where two headings read alike, the source gives them in different places.

How the values were obtained:
[1] = molecular target: T1, Human TRPA1 expressing CHO cells (Homo sapiens, UniProt O75762); assay: 45Calcium uptake assay: inhibition of AITC induced cellular uptake of radioactive calcium; assay type: cell-based; conditions: AITC 30 μM, human TRPA1 CHO cells; for inhibition at 1 µM: 1.0 μM test compound, read-out: Percentage inhibition at 1.0 μM; for inhibition at 10 µM: 10.0 μM test compound, read-out: Percentage inhibition at 10.0 μM; for pIC50: read-out: IC50 value (range)
T1 construct: expressed in transfected cells; host or cells: CHO cells (under G-418 selection)
Method in brief: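 CHO cells expressing human TRPA1 were preincubated 10 min with compound (0.5% DMSO final), then stimulated 3 min with 30 μM AITC plus 5 μCi/ml 45Ca2+. Lysate radioactivity gave % of maximal uninhibited response; IC50 by nonlinear regression.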

male SD rats [2] = assay: AITC-induced nocifensive behaviour in rats; assay type: in vivo, rat; conditions: 10 mg/kg, p.o., AITC 5%
From the text: (§1) The illustrative examples of the present invention are screened for ‘in vivo’ TRPA1 based efficacy in various models of pain/hyperalgesia according to modified procedures described in (a) McNamara C R et al., PNASU (2007), 104, 13525-13530 (b) Eid S R et al., Molecular Pain, (2008), 4, 48 (c) Bennett G J and Xie Y K, Pain (1988), 33, 87-107. The screening of the compounds can also be carried out by some other methods and procedures known to persons skilled in the art.
AITC-Induced Nocifensive Behaviour in Rats
Allyl isothiocyanate (AITC), a selective activator of TRPA1 receptor channel, induces nocifensive behavior (paw flinching and licking responses) in rats. The number of flinches and licking responses were counted for 45 min following the injection of 5% AITC into the plantar region of the paw. AITC being an activator of TRPA1 receptor, this model serves as a mechanistic validation for screened molecules as selective antagonists at TRPA1 channel receptor.

male SD rats [3] = assay: Formalin-induced nocifensive behaviour; assay type: in vivo, rat; conditions: 10 mg/kg, p.o., given 1.5 h (compound 10) or 3 h (compound 37) prior to formalin (2.5%)
From the text: as §1
Formalin-Induced Nocifensive Behaviour
Formalin also induces nocifensive behaviour (paw flinching and licking responses) in rats and mice. TRPA1-deficient mice show marked attenuation of characteristic paw flinching and licking responses as a result of intraplantar injection of formalin in a characteristic early and late phase manner. This model also serves as a selective TRPA1 based mechanistic model.
Compound 10 and compound 37 inhibited the formalin-induced nocifensive licking behaviour in both early & late phases in male SD rats.

[4] = Plasma levels after oral dosing in the rat pain models; assay type: in vivo; conditions: for concentration at 4 h / concentration at 2 h: Sprague-Dawley, AITC model; for concentration at 2 h: p.o.
rats = assay: FCA (Freund's Complete Adjuvant)-induced inflammatory mechanical hyperalgesia; assay type: in vivo, rat; conditions: for maximum efficacy against FCA-induced mechanical hyperalgesia: rats
From the text: as §1
FCA (Freund's Complete Adjuvant)-Induced Inflammatory Hyperalgesia
Freund's Complete Adjuvant (FCA), containing heat killed, dried Mycobaterium tuberculosis (1 mg/ml) emulsified in mineral oil and mannide monooleate, when injected (30 μl) into the plantar region of the paw of mice and rats induces an inflammatory hyperalgesia. Mechanical hyperalgesia (24 h after injection) was assessed by measuring hind paw withdrawal thresholds to an increasing pressure (g) stimulus, using the Randall-Sellitto analgesymeter (37215, Ugo Basile, Italy) fitted with a wedge-shaped probe.

male SD rats [5] = assay: Chronic Constriction Injury (CCI)-induced neuropathic pain (Bennett's model); assay type: in vivo, rat
From the text: as §1
Chronic Constriction Injury (CCI)-Induced Neuropathic Pain (Bennett's Model)
Chronic constriction injury (CCI) of sciatic nerve in rats and mice induces inflammatory mechanical hyperalgesia in this Bennet's neuropathic pain model. Rats were anesthetized using ketamine/xylazine (40/5 mg/kg, i.p.) and the left sciatic nerve was exposed at mid thigh level through a small incision. Four loose ligatures of 4-0 chromic cat gut (Ethicon-Johnson & Johnson) at 1 mm space were placed around the sciatic nerve […] of common sciatic nerve. After 6-7 days, mechanical hyperalgesia was assessed by measuring hind paw withdrawal thresholds to an increasing pressure (g) stimulus, using the Randall-Sellitto analgesymeter (Ugo Basile, Italy), fitted with a wedge-shaped probe.

[6] = rat, plasma, oral, 10 mg/kg, male SD rats

T1 sequence (O75762 whole entry): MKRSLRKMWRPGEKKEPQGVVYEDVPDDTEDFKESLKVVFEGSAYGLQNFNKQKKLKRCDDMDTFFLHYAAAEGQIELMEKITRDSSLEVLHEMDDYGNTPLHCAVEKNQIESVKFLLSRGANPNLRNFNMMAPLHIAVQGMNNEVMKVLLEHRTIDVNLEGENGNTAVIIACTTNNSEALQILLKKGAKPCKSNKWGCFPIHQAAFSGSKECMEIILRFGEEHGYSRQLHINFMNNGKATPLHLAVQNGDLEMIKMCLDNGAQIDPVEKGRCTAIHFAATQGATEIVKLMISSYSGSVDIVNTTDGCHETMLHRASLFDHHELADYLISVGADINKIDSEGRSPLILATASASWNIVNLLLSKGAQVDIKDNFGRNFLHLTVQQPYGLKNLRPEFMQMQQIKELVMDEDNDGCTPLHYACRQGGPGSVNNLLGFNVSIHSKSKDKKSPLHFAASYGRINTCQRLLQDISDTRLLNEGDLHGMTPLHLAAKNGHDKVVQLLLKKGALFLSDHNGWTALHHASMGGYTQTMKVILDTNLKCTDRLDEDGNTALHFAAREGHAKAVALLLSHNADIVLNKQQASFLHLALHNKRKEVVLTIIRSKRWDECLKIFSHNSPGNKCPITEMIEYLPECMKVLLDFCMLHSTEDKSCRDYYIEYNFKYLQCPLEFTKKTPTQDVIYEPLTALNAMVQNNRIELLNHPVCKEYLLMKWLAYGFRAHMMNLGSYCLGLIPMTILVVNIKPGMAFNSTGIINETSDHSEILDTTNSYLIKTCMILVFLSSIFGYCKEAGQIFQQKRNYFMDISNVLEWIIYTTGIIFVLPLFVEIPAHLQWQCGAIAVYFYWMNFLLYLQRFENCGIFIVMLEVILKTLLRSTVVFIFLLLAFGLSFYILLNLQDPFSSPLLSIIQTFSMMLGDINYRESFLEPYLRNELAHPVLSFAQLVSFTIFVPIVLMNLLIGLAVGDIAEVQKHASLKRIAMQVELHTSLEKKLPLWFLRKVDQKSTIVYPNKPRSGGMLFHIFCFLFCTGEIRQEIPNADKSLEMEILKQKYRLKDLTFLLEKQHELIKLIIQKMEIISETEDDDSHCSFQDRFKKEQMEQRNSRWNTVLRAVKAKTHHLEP

SMILES | inhibition at 1 µM [1] [%] | inhibition at 10 µM [1] [%] | pIC50 [1] | inhibition of AITC induced flinching (male SD rats [2]) [%] | inhibition of the early phase nocifensive behaviour (male SD rats [3]) [%] | inhibition of the late phase nocifensive behaviour (male SD rats [3]) [%] | concentration at 4 h [4, 6] [ng/mL] | maximum efficacy against FCA-induced mechanical hyperalgesia (rats; 30 mg/kg (p.o.)) [%] | concentration at 1 h ([4]; rat, plasma, oral, 30 mg/kg (p.o.), FCA model, rats) [ng/mL] | maximum efficacy against FCA-induced mechanical hyperalgesia (rats; 10 mg/kg, p.o.) [%] | ED50 (rats; Rattus norvegicus, po, doses 1, 3, 6 and 10 mg/kg) [mg/kg] | maximum efficacy, reversal of CCI-induced hyperalgesia (male SD rats [5]; 10 mg/kg, acute and chronic administration) [%] | ED50 (male SD rats [5]; Rattus norvegicus, read-out: ED50, CCI-induced neuropathic hyperalgesia) [mg/kg] | plasma levels ([4]; 10 mg/kg, CCI model, male SD rats) [ng/mL] | concentration at 2 h ([4]; rat, plasma, oral, 3 mg/kg, male SD rats, read-out: Plasma levels at 2 h) [ng/mL] | concentration at 2 h ([4]; rat, plasma, oral, 10 mg/kg, male SD rats, read-out: Plasma levels at 2 h) [ng/mL] | concentration at 2 h ([4]; rat, plasma, oral, 3, 5 and 10 mg/kg, male SD rats, read-out: plasma levels at 2 h post-dose (range over doses)) [ng/mL] | concentration at 0.5 h ([4]; rat, plasma, oral, 10 mg/kg, FCA model, rats) [ng/mL]
Cn1c(=O)c2c(CC(=O)Nc3nc(-c4ccc(C(F)(F)F)c(F)c4)cs3)cccc2n(C)c1=O [Example 37, N1-[4-(3-Fluoro-4-trifluoromethylphenyl)-1,3-thiazol-2-yl]-2-(1,3-dimethyl-2,4-dioxo-1,2,3,4-tetrahydro-5-quinazolinyl)acetamide] | 97.5 | 99.4 | > 7.30 | 39 | 18 | 59 | 6200 |  |  |  |  |  |  |  |  |  |  | 
Cn1c(=O)c2c(CC(=O)Nc3nc(-c4cccc(C(F)(F)F)c4)cs3)cccc2n(C)c1=O [Example 15, N1-[4-(3-Trifluoromethylphenyl)-1,3-thiazol-2yl]-2-(1,3-dimethyl-2,4-dioxo-1,2,3,4-tetrahydro-5-quinazolinyl)acetamide] | 98 | 100 | > 7.30 | 59 |  |  | 9800 | ~70 | 3430 |  |  |  |  |  |  |  |  | 
Cn1c(=O)c2c(CC(=O)Nc3nc(-c4ccc(Cl)cc4)cs3)cccc2n(C)c1=O [Example 10] | 99.7 | 99.9 | 7.00 to 7.30 |  | 58 | 58 |  |  |  | 81 | 2.7 | 75 | 3.5 | 5100 | 2080 | 7380 | 2080 to 7380 | 3500
